Test results: patent US12187683B2, “Benzoindazolone compound and intermediate thereof” (LMITO THERAPEUTICS INC., priority 2019, dated 2025)

molecular target: NQO1 (Homo sapiens, UniProt P15559); assay: In vitro NQO1 enzyme activity assay (cytochrome C reduction, absorbance at 550 nm); type: biochemical; settings: Table 1; NQO1 2 ng, Compound 5 μM; control 196
Method: In order to evaluate the activity of synthesized compound in NQO1, the experiments were conducted as follows:
The synthesized compound was dissolved in DMSO to make a 10 mM stock solution, which was further diluted with DMSO to 250 μM so as to prepare a working solution. For experimental groups, the working solution of the compound was added to an enzyme reaction solution in which 50 μL of 1.54 mM Cytochrome C solution was added to 900 μL of 50 mM Tris-HCl (pH7.5) containing 0.14% BSA. For negative control groups, DMSO not containing the compound of the invention was added to the enzyme reaction solution as above. For each experimental and control group, 20 μL of 100 ng/mL NQO1 protein was added. Next, 10 μL of 20 mM NADH was added to bring up the volume to 1 mL. The change of absorbance was measured at 550 nm for 10 minutes using 1 mL cuvette. The kinetics of reaction was measured with the increase of absorbance as the cytochrome C was reduced at 550 nm over 10 minutes. The activity of NQO1 was measured by the amount of cytochrome C that is being reduced (nmol cytochrome C that was reduced/min/ug NQO1 protein).
Absorption coefficient of Cytochrome C: 21.1 (μmol/mL)^−1 cm^−1
Equipment=Cary 100 UV-Vis Spectrophotometer

Sequence of NQO1 (P15559 whole entry, species assumed): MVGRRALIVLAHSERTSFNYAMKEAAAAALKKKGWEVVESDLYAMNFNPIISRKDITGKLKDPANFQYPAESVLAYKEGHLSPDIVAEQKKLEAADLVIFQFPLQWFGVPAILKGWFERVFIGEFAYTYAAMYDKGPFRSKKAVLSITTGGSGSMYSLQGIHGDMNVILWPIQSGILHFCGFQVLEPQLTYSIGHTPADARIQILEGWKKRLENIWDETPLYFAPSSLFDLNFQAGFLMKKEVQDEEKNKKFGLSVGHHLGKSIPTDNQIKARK

SMILES | NQO1 activity (nmol of reduced Cytochrome C/min/μg NQO1 protein)
O=C1C(=O)c2c(n(-c3ccccc3)[nH]c2=O)-c2ccccc21 [Compound 1, 1-phenyl-1H-benzo[g]indazol-3,4,5(2H)-trione] | 180 nmol of reduced Cytochrome C/min/μg NQO1 protein
CC(C)n1c(=O)c2c(n1C)-c1ccccc1C(=O)C2=O [Compound 3, 2-isopropyl-1-methyl-1H-benzo[g]indazol-3,4,5(2H)-trione] | 3066 nmol of reduced Cytochrome C/min/μg NQO1 protein
Cn1c(=O)c2c(n1-c1ccccc1)-c1ccccc1C(=O)C2=O [Compound 5, 2-methyl-1-phenyl-1H-benzo[g]indazol-3,4,5(2H)-trione] | 2602 nmol of reduced Cytochrome C/min/μg NQO1 protein
COc1nn(-c2ccccc2)c2c1C(=O)C(=O)c1ccccc1-2 [Compound 6, 3-methoxy-1-phenyl-1H-benzo[g]indazol-4,5-dione] | 7706 nmol of reduced Cytochrome C/min/μg NQO1 protein

same assay, conditions: Table 2; NQO1 2 ng, Compound 0.2 μM; control 96

SMILES | NQO1 activity (nmol of reduced Cytochrome C/min/μg NQO1 protein)
CC(C)CCOc1nn(-c2ccccc2)c2c1C(=O)C(=O)c1ccccc1-2 [Compound 12, 3-(isopentyloxy)-1-phenyl-1H-benzo[g]indazol-4,5-dione] | 2981 nmol of reduced Cytochrome C/min/μg NQO1 protein
CCn1c(=O)c2c(n1-c1ccccc1)-c1ccccc1C(=O)C2=O [Compound 7, 2-ethyl-1-phenyl-1H-benzo[g]indazol-3,4,5(2H)-trione] | 2246 nmol of reduced Cytochrome C/min/μg NQO1 protein
CC(C)CCn1c(=O)c2c(n1-c1ccccc1)-c1ccccc1C(=O)C2=O [Compound 11, 2-isopentyl-1-phenyl-1H-benzo[g]indazol-3,4,5(2H)-trione] | 2839 nmol of reduced Cytochrome C/min/μg NQO1 protein
COc1nn(-c2ccc(C(F)(F)F)cc2)c2c1C(=O)C(=O)c1ccccc1-2 [Compound 18, 3-methoxy-1-(4-(trifluoromethyl)phenyl)-1H-benzo[g]indazol-4,5-dione] | 4232 nmol of reduced Cytochrome C/min/μg NQO1 protein
CC(C)n1c2c(c(=O)n1C)C(=O)C(=O)c1ccccc1-2 [Compound 16, 1-isopropyl-2-methyl-1H-benzo[g]indazol-3,4,5(2H)-trione] | 4441 nmol of reduced Cytochrome C/min/μg NQO1 protein
CC(C)Oc1nn(-c2ccccc2)c2c1C(=O)C(=O)c1ccccc1-2 [Compound 2, 3-isopropoxy-1-phenyl-1H-benzo[g]indazol-4,5-dione] | 3531 nmol of reduced Cytochrome C/min/μg NQO1 protein
CC(C)n1c(=O)c2c(n1-c1ccccc1)-c1ccccc1C(=O)C2=O [Compound 13, 2-isopropyl-1-phenyl-1H-benzo[g]indazol-3,4,5(2H)-trione] | 2137 nmol of reduced Cytochrome C/min/μg NQO1 protein
CC(C)COc1nn(-c2ccccc2)c2c1C(=O)C(=O)c1ccccc1-2 [Compound 10, 3-isobutoxy-1-phenyl-1H-benzo[g]indazol-4,5-dione] | 3455 nmol of reduced Cytochrome C/min/μg NQO1 protein
CC(C)Cn1c(=O)c2c(n1-c1ccccc1)-c1ccccc1C(=O)C2=O [Compound 9, 2-isobutyl-1-phenyl-1H-benzo[g]indazol-3,4,5(2H)-trione] | 2474 nmol of reduced Cytochrome C/min/μg NQO1 protein
CCOc1nn(-c2ccccc2)c2c1C(=O)C(=O)c1ccccc1-2 [Compound 8, 3-ethoxy-1-phenyl-1H-benzo[g]indazol-4,5-dione] | 3768 nmol of reduced Cytochrome C/min/μg NQO1 protein
COc1nn(-c2ccc(F)cc2)c2c1C(=O)C(=O)c1ccccc1-2 [Compound 19, 1-(4-fluorophenyl)-3-methoxy-1H-benzo[g]indazol-4,5-dione] | 4303 nmol of reduced Cytochrome C/min/μg NQO1 protein
COc1nn(-c2ccccc2)c2c1C(=O)C(=O)c1ccccc1-2 [Compound 6, 3-methoxy-1-phenyl-1H-benzo[g]indazol-4,5-dione] | 3782 nmol of reduced Cytochrome C/min/μg NQO1 protein

same assay, conditions: Table 3; NQO1 2 ng, Compound 0.2 μM; control 74

SMILES | NQO1 activity (nmol of reduced Cytochrome C/min/μg NQO1 protein)
Cn1c(=O)c2c(n1-c1ccccc1)-c1ccc(F)cc1C(=O)C2=O [Compound 21, 7-fluoro-2-methyl-1-phenyl-1H-benzo[g]indazol-3,4,5(2H)-trione] | 1095 nmol of reduced Cytochrome C/min/μg NQO1 protein
Cn1c2c(c(=O)n1-c1ccccc1)C(=O)C(=O)c1ccccc1-2 [Compound 20, 1-methyl-2-phenyl-1H-benzo[g]indazol-3,4,5(2H)-trione] | 436 nmol of reduced Cytochrome C/min/μg NQO1 protein
COc1nn(C(C)C)c2c1C(=O)C(=O)c1ccccc1-2 [Compound 17, 1-isopropyl-3-methoxy-1H-benzo[g]indazol-4,5-dione] | 4488 nmol of reduced Cytochrome C/min/μg NQO1 protein
COc1nn(-c2ccccc2)c2c1C(=O)C(=O)c1ccccc1-2 [Compound 6, 3-methoxy-1-phenyl-1H-benzo[g]indazol-4,5-dione] | 2905 nmol of reduced Cytochrome C/min/μg NQO1 protein
COc1nn(-c2ccccc2)c2c1C(=O)C(=O)c1cc(F)ccc1-2 [Compound 22, 7-fluoro-3-methoxy-1-phenyl-1H-benzo[g]indazol-4,5-dione] | 5360 nmol of reduced Cytochrome C/min/μg NQO1 protein

same assay, conditions: Table 4; NQO1 2 ng, Compound 0.2 μM; control 10

SMILES | NQO1 activity (nmol of reduced Cytochrome C/min/μg NQO1 protein)
COc1nn(-c2ccccc2)c2c1C(=O)C(=O)c1cc(Br)ccc1-2 [Compound 25, 7-bromo-3-methoxy-1-phenyl-1H-benzo[g]indazol-4,5-dione] | 1445 nmol of reduced Cytochrome C/min/μg NQO1 protein
COc1nn(-c2ccccc2)c2c1C(=O)C(=O)c1cc(N)ccc1-2 [Compound 24, 7-amino-3-methoxy-1-phenyl-1H-benzo[g]indazol-4,5-dione] | 3739 nmol of reduced Cytochrome C/min/μg NQO1 protein
COc1nn(-c2ccccc2)c2c1C(=O)C(=O)c1cc([N+](=O)[O-])ccc1-2 [Compound 23, 3-methoxy-7-nitro-1-phenyl-1H-benzo[g]indazol-4,5-dione] | 393 nmol of reduced Cytochrome C/min/μg NQO1 protein
COc1nn(-c2ccccc2)c2c1C(=O)C(=O)c1ccccc1-2 [Compound 6, 3-methoxy-1-phenyl-1H-benzo[g]indazol-4,5-dione] | 3261 nmol of reduced Cytochrome C/min/μg NQO1 protein
